Results reported in patent US10617749B1, “Composition of matter and methods for alteration of dendritic cell metabolism to augment cancer vaccine efficacy” (Duke University, priority 2016, dated 2020).
“Also recorded” adds a separate entry of the source.

Assays:
CPT1a = CPT1a silencing by shRNA-expressing lentiviral vector (qrt-PCR, Western blot); assay type: cell-based, mouse
Text: The application includes the sequence listing that is concurrently filed in computer readable form. This sequence listing is incorporated by reference herein.
Murine bone marrow-derived DCs (BMDCs) were harvested and differentiated as previously described and purified using CD11c microbeads (Miltenyi Biotec) according to manufacturer's protocol. DC purity was monitored by flow cytometry and consistently found to be >95% CD11c+F4/80-. BRAFV600EPTEN−/−-Wnt5aKD and BRAFV600EPTEN−/−-NTC cell lines were generated and cultured as previously described. DC2.4, a murine dendritic cell line was kindly provided by Dr. Kenneth L. Rock (University of Massachusetts Medical School), and cultured as previously described. DC2.4β-cateninKD, DC2.4-CPT1AKD, and DC2.4-NTC stable cell lines were generated using a β-catenin-targeted, CPT1A-targeted, or control shRNA-expressing lentivirus followed by puromycin selection. DCs were treated with Wnt3a (100 ng/mL), Wnt5a (200 ng/mL), LPS (1 μg/mL), 1-MT, 2DG (1 mM), or ETO (100 µM) vs vehicle control either for 24 or 48 hrs prior to their use in both in vitro and in vivo experiments. […]
Total RNA was isolated by RNeasy Plus Mini Kit(Qiagen). […] Quantification of mRNA for genes involved in PPARγ signaling was performed using Mouse PrimePCR PPAR Array according to the manufacturer's protocol (BioRad). […]

BRAFV600EPTEN−/− cells = assay: Soft agar colony formation assay; assay type: cell-based, mouse; settings: 15 days in presence or absence of ETO
Method: Complete growth media—0.7% agar was overlaid with complete growth media—[…] containing 10,000 cells and additional complete growth media. After 2 weeks, colonies were stained with MTT(Sigma) to identify viable colonies and imaged by a ChemiDoc XRSplus system as previously described. Images were analyzed with NIH ImageJ to enumerate colony number.

[1] = tested on: DC-induced CD4+ Foxp3+ Tregs in draining lymph nodes; assay: In vivo Treg assay; settings: conditioned primary DCs transferred into footpad of FoxP3-mRFP reporter mice
Method: (§1) In vivo Treg assay. DCs (C57, H-2^b) were pre-treated for 48 hours and delivered by intradermal injection into the footpad of Foxp3-mRFP mice. Draining inguinal and popliteal lymph nodes were resected 5 days later and analyzed for CD4^+ Foxp3^+ Tregs. In vitro Treg assay, DCs (Balb/c, H-2^d) were pre-treated for either 24 or 48 hrs, and re-plated at a 1:3 DC:T-cell ratio with purified naïve Foxp3-mRFP(H-2^b) CD4^+ Tcells. These co-cultures were incubated for 6 days and quantitated for CD4^+ FoxP3^+ Tregs by flow cytometry.

OT-1 CD8+ T cells = assay: T cell proliferation assay; assay type: cell-based, mouse; settings: SIINFEKL-loaded BMDCs co-incubated with OT-1 splenocytes
Method: Splenocytes of OT-1 mice (H-2^b) were isolated and stained with CellTrace Violet (ThermoFisher). Preconditioned DCs were loaded with ovalbumin peptide SIINFEKL, and co-cultured at a DC:splenocyte ratio of 40,000:120,000 cells for 72 hrs. CD8+ T cell proliferation was measured by the dilution of Cell Trace Violet dye by flow cytometry.

[2] = tested on: bone marrow-derived DCs (BMDCs); assay: DC oxygen consumption rate (OCR) / OXPHOS, extracellular flux analysis; assay type: cell-based, murine; settings: murine DCs pre-treated with Wnt5a vs Wnt5a+ETO
Method: (§2) DC energy metabolism was measured using the XF^e24 extracellular flux analyzer (Seahorse Bioscience), with the glycolysis stress test kit and the mitochondrial stress test kit as previously described (Everts et al., 2014; Zhao and Klimecki, 2015).
(§3) Murine bone marrow-derived DCs (BMDCs) were harvested and differentiated as previously described and purified using CD11c microbeads (Miltenyi Biotec) according to manufacturer's protocol. DC purity was monitored by flow cytometry and consistently found to be >95% CD11c+F4/80-. BRAFV600EPTEN−/−-Wnt5aKD and BRAFV600EPTEN−/−-NTC cell lines were generated and cultured as previously described. DC2.4, a murine dendritic cell line was kindly provided by Dr. Kenneth L. Rock (University of Massachusetts Medical School), and cultured as previously described. DC2.4β-cateninKD, DC2.4-CPT1AKD, and DC2.4-NTC stable cell lines were generated using a β-catenin-targeted, CPT1A-targeted, or control shRNA-expressing lentivirus followed by puromycin selection. DCs were treated with Wnt3a (100 ng/mL), Wnt5a (200 ng/mL), LPS (1 μg/mL), 1-MT, 2DG (1 mM), or ETO (100 µM) vs vehicle control either for 24 or 48 hrs prior to their use in both in vitro and in vivo experiments.

[3] = tested on: human monocyte-derived DCs; assay: OCR analysis of human monocyte-derived DCs; assay type: cell-based; settings: human DCs pre-treated with Wnt5a 48 hours, short-term ETO
Method: Human DCs were differentiated from harvested peripheral blood mononuclear cells and pre-treated with Wnt5a 48 hours prior to OCR analysis. Short-term incubation with ETO was performed prior to analysis.
as §2
Human Monocyte-derived Dendritic Cells were generated as previously described.

[4] = tested on: autochthonous BRAFV600EPTEN−/− melanoma; assay: Autochthonous tumor study with adoptively transferred pretreated DCs; assay type: in vivo, transgenic mice
Method: B6.Cg-Braftm1Mmcm Ptentm1Hwu Tg(Tyr-cre/ERT2 H-2b)13Bos/BosJ (BRAFV600EPTEN−/−, H-2b), transgenic mice were subdermally injected with 4-HT (Sigma, 38.75 μg/mice) to induce primary melanoma development. Three days prior to 4-HT injection, 1×10^6 cells DCs pretreated with Wnt5a+/−ETO were washed and delivered by intra-dermal injection into the hind leg foot pads every 3-4 days until the conclusion of the experiment. Melanoma growth was monitored by orthagonal caliper measurements every 3-4 days between day 15 to day 32.

murine DCs = assay: qrt-PCR / ELISA gene and cytokine expression in murine DCs; assay type: cell-based; settings: BMDCs, qrt-PCR
Method: Total RNA was isolated by RNeasy Plus Mini Kit(Qiagen). RNA(500 ng) was used in cDNA Synthesis (iScript, BioRad). Quantification of mRNA for genes involved in PPARγ signaling was performed using Mouse PrimePCR PPAR Array according to the manufacturer's protocol (BioRad). Real-time PCR was performed using an ABI7500 Real-Time PCR system (Life Technologies). Data analysis utilized the PrimePCR Analysis Software (BioRad). Conventional qPCR was performed using validated primers (Table 1) and SsoAdvanced Universal SYBR Green Super mix (BioRad) or Taqman probes (Applied Biosystems) for heme synthesis enzymes.
Murine IL-6 (eBioscience) and IL-12p40 (Becton Dickinson) ELISAs were performed according to manufacture's protocol.

[5] = tested on: BRAFV600EPTEN−/− melanoma; assay: Syngeneic transplant tumor study; assay type: in vivo, C57BL/6 mice
Method: Mouse IFNγ ELISPOTPLUS (MABTECH) was performed according to manufacture guidelines. Imaging was conducted using a ChemiDoc System (BioRad) and quantified using ImageJ software.
Paraffin-embedded tissues were processed and stained following standard protocols and imaged with a Zeiss CLSM 700 confocal microscope. CD8 (BioLegend) and PD-L1 (Abcam) primary antibodies were utilized where indicated. Warp Red chromogen detection system (BioCare) was used for antigen visualization.
BRAFV600EPTEN−/− cells line were established as previously described. 5×10^5 cells were implanted by subcutaneous injection into syngeneic C57 mice. Tumor growth was monitored by caliper measurement. Etomoxir (Sigma, ETO) was administered daily by oral gavage (25 mg/kg/day). Anti-PD-1 rat mAb or rat IgG2a isotype control (BioXCell) was delivered every 3 days by intraperitoneal injection (250 μg/dose).

BMDCs = assay: DC viability, Annexin V/PI flow cytometry; assay type: cell-based, murine; settings: BMDCs treated 48 hours
Text: Data is representative of two-independent experiments.

[6] = tested on: DC-induced CD4+ FoxP3+ Tregs; assay: In vitro Treg assay; assay type: cell-based, mouse
Method: as §1, §3

DC IDO = assay: IDO enzymatic assay (kynurenine HPLC); assay type: cell-based, mouse
Method: DC IDO enzyme activity was measured by the conversion of L-tryptophan to L-kynurenine in conditioned media by HPLC (Pallotta et al., 2011). Intracellular hemin levels were measured using a colorimetric assay kit (BioVision).

[7] = DCs pretreated with Wnt5a+/−ETO

| TIDC IDO enzyme activity (kynurenine) (DC IDO; TIDCs purified from BRAFV600E-PTEN−/−-NTC tumors) | Compound | silencing of mouse CPT1a expression (CPT1a) | intrinsic proliferative capacity of tumor cells (soft agar colonies) (BRAFV600EPTEN−/− cells) | DC-mediated Treg differentiation in vivo [1] | DC-mediated antigen-specific CD8+ T cell proliferation (OT-1 CD8+ T cells) | Wnt5a-induced DC OXPHOS / mitochondrial respiration (OCR) [2] | Wnt5a-induced DC mitochondrial respiration (OCR) [3] | Tregs within draining LN tissues [4, 7] | melanoma-infiltrating CD8+ T cells [4, 7] | primary melanoma progression ([4]; DCs pretreated with Wnt5a+/−ETO transferred to foot pads) | IL-6 and IL-12 expression in primary DCs (murine DCs) | primary melanoma growth, ETO combined with anti-PD-1 antibody ([5]; ETO 25 mg/kg/day oral gavage plus anti-PD-1 250 μg/dose i.p. every 3 days) | primary melanoma progression, monotherapy ([5]; ETO 25 mg/kg/day oral gavage, anti-PD-1 250 μg/dose i.p. every 3 days) | DC viability (BMDCs) | DC-mediated Treg differentiation in vitro, IDO−/− DCs ([6]; DCs derived from IDO−/− mice +/−ETO) | DC-mediated Treg differentiation in vitro ([6]; pre-treated DCs co-cultured with naïve CD4+ T cells) | DC IDO enzymatic activity (kynurenine) (DC IDO; purified DC cultures, Wnt5a or Wnt5a+ETO) |
| --- | --- | --- | --- | --- | --- | --- | --- | --- | --- | --- | --- | --- | --- | --- | --- | --- | --- |
| – | SEQ ID NO:1: shRNA sequence for silencing mouse CPT1a (guide CCGGGCTATGGTGTTTCCTACATTACTCGAGTAATGTAGGAAACACCATAGCTTTTTG) | effective for silencing the expression of mouse CPT1a | – | – | – | – | – | – | – | – | – | – | – | – | – | – | – |
| lower levels of IDO enzyme activity | CCOC(=O)[C@@]1(CCCCCCOc2ccc(Cl)cc2)CO1 [ETO, etomoxir] | – | has no impact on the intrinsic proliferative capacity of this tumor model | ablate; also recorded: potently suppress the ability of Wnt5a-conditioned DCs to drive Treg differentiation; also recorded: inhibits Wnt5a-conditioning of DC-mediated Treg development in vivo | significantly augment in vitro DC-dependent T cell proliferation to levels similar to that of LPS stimulation; also recorded: potently induce DC-mediated T cell activation to levels similar to those seen in response to LPS-treatment of DCs; also recorded: enhances the ability of DCs to induce OT-1 T cell proliferation | ablate Wnt5a-induced DC OXPHOS; also recorded: completely ablate Wnt5a induction of both murine and human DC mitochondrial respiration; also recorded: abrogates Wnt5a-induced DC OXPHOS | completely ablate Wnt5a induction of both murine and human DC mitochondrial respiration | suppression of Tregs within draining LN tissues | enhanced numbers of melanoma-infiltrating CD8+ T cells | potently suppress primary melanoma progression | alterations in cytokine expression were further recapitulated | significantly enhanced the anti-tumor efficacy of the anti-PD-1 antibody; also recorded: augments anti-PD-1 antibody suppression | suppresses the progression of BRAF^V600E-PTEN^−/− melanoma similar to anti-PD-1 antibody monotherapy | does not impair DC viability; also recorded: not impacting DC viability | dramatically suppress the ability of IDO^−/− DCs to drive Treg differentiation; also recorded: inhibition of DC-mediated Treg generation extends beyond IDO activity | ablate; also recorded: potently suppress the ability of Wnt5a-conditioned DCs to drive Treg differentiation; also recorded: inhibits Wnt5a-conditioning of DC-mediated Treg development in vitro | completely eliminated this effect; also recorded: reverses Wnt5a-stimulation of DC IDO enzymatic activity |
